Several values for one entry are separate records, joined by “and”; a condition that tells them apart may be missing. Identical values can stand only once.
Tests used:
[1] = LC-MS/MS of free butyrate in solution of fresh and aged SerBut
Procedure: To investigate stability, we repeated the experiment with SerBut in FBS-supplemented complete media stored for 1 month at 37°C (Figure 1B).
(B) LC-MS/MS analysis of free butyrate in solution of aged SerBut (incubated at 37°C in FBS-supplemented media for 1 month) and freshly dissolved SerBut and NaBut. (C) NF-κB activity of RAW Blue reporter cells upon treatment with the indicated concentrations of SerBut or NaBut for 24 hours followed by stimulation with 200 ng/mL LPS for 6 hours. (D–J) RAW 264.7 cells treated for 24 hours with the indicated concentrations of SerBut or NaBut followed by stimulation with 200 ng/mL LPS for 6 hours. (D–E) Mean fluorescence intensity (MFI) of iNOS^+ or CD80^+ RAW 264.7 cells analyzed by flow cytometry. (F–J) Cytokine concentrations in the cell culture supernatant of RAW 264.7 cells. “x” indicates untreated group. In A, n = 3 per group representing technical replicates. In B, n = 3 freshly prepared samples per 2 distinct experiments pooled for aged SerBut and NaBut groups, while fresh the SerBut group represents a single experiment. One sample in the aged SerBut group and 2 samples in the NaBut group were lost due to filtering malfunctions or LC-MS/MS autosampling malfunctions. In C, n = 6 technical replicates. Data represent mean ± SEM. […] In A, 2-way ANOVA was performed.
Samples were prepared and derivatized as described previously ([28]). Stock solutions were prepared in water/acetonitrile (ACN) (1:1 v/v): 3-nitrophenylhydrazine (NPH), and 1-ethyl-3-(3-dimethylaminopropyl)carbodiimide (EDC) (in 1% pyridine). The internal standard, 4-methylvaleric acid, was added. Samples were mixed with NPH and EDC stocks at a 1:1:1 volume ratio. The mixture was heated in a heating block at 60°C for 30 minutes. Samples were filtered through 0.22 μm filters and stored at 4°C before analysis.
Both derivatized butyrate-NPH and 4-methylvaleric-NPH were detected in negative mode. Column: Thermo Fisher Scientific C18 4.6 × 50 mm, 1.8 μm particle size, at room temperature. Mobile phase A: water with 0.1% v/v formic acid. Mobile phase B: ACN with 0.1% v/v formic acid. Injection volume: 5.0 μL. Flow rate: 0.5 mL/min. […] The MS conditions were optimized using pure butyrate-NPH or 4-methylvaleric-NPH at 1 mM. […] The ratio between MRM of butyrate and 4-methylvaleric acid was used to quantify butyrate concentration.

ApoE^–/– mice on an HFD [2] = assay: Oil Red O staining of aortic root plaque; assay type: in vivo, mouse; set-up: ORO Quantification ORO+ Heart: unit not given here; settings: for ORO Quantification ORO+ Heart: individual mice, experiments 1 and 2
Procedure: (§1) For 6 weeks, mice were freely administered water, water containing 150 mM SerBut, or water containing an equimolar amount of NaBut. SerBut water was pH adjusted using 10 M NaOH to a final pH of 7.4. […] In concert, mice were fed an HFD with 42% from fat and 0.2% total cholesterol (Envigo, TD-88137) ad libitum. After 6 weeks, mice were euthanized. The lMLNs, ILNs, spleen, heart, and aorta were harvested and processed for flow cytometry analysis ([67]). The liver was harvested and part was homogenized in tissue protein extraction reagent buffer (Invitrogen, 78510) supplemented with protease inhibitor mini tablets (Thermo Fisher Scientific, PIA32955) for Western blotting and qPCR. The remaining liver was fixed with 4% paraformaldehyde and embedded in paraffin for histological analysis.
Hearts were fixed in 4% paraformaldehyde for 24 hours and cryopreserved with sucrose (15% sucrose for 24 hours, 30% sucrose for 24 hours, 1:1 30% sucrose and OCT) before being embedded in OCT (Thermo Fisher Scientific). Frozen embedded samples were sectioned at 8 μm until all 3 leaflets were visible. Aortic root sections were brought to room temperature and rehydrated with PBS. Staining solution was freshly prepared by mixing 3:2 Oil Red O (0.5% in isopropanol, Sigma Aldrich) to water. The solution was filtered through a 0.22 μm PES syringe filter (Millipore) and pipetted onto sections. After 15 minutes in a sealed dark chamber, sections were washed 3 times with water and imaged. Images were analyzed using QuPath (v0.5.0) (https://qupath.github.io). Each leaflet was circled broadly to include the plaque and then subsequently trained on the QuPath pixel classifier using the software’s artificial neural network. Training images were then tested and validated to identify the plaques to calculate their area and exclude non-plaque structures in the image. Plaque sizes were subsequently averaged and used to determine percentage Oil Red O–positive plaque area in the leaflet.

ApoE^–/– mice on an HFD [3] = assay: qPCR of liver lipid metabolism genes; assay type: in vivo, mouse; set-up: srebf1 / srebf2 / fasn / acly / scd1 / acaca / cpt1a: scale not given here; settings: for acaca / acly / cpt1a / fasn / scd1 / srebf1 / srebf2: qPCR, individual mice
Procedure: We then asked whether SerBut’s effects on disease pathology and inflammation may be partially mediated by changes in lipid metabolism by measuring lipogenic and lipid oxidation gene expression by qPCR after treatment for 6 weeks (Supplemental Figure 10, F–L).
as §1

ApoE^–/– mice on an HFD [4] = assay: Immunofluorescent staining of the aortic root (CD68, iNOS, DAPI); assay type: in vivo, mouse; set-up: Immunoflourescence Quantification #Cells/Area / Immunoflourescence Quantification #iNOS+/Area: unit not given beside the values; settings: for Immunoflourescence Quantification #CD68 / Immunoflourescence Quantification #Cells / Immunoflourescence Quantification #Cells/Area / Immunoflourescence Quantification #iNOS+ / Immunoflourescence Quantification #iNOS+/Area / Immunoflourescence Quantification CD68+/Area / Immunoflourescence Quantification CD68+iNOS+ / Immunoflourescence Quantification CD68+iNOS+/Area: aortic root, individual samples
Excerpt: SerBut water was pH adjusted using 10 M NaOH to a final pH of 7.4. […] After 6 weeks, mice were euthanized. […] The liver was harvested and part was homogenized in tissue protein extraction reagent buffer (Invitrogen, 78510) supplemented with protease inhibitor mini tablets (Thermo Fisher Scientific, PIA32955) for Western blotting and qPCR. […] Aortic root sections were brought to room temperature and rehydrated with PBS and permeabilized with 10% dimethyl sulfoxide (DMSO). […] Sections were washed again in PBS with 0.1% Tween 20 and then PBS and mounted with ProLong Gold Antifade Mountant with DAPI (Invitrogen). Slides were imaged with a DMI8 inverted fluorescence microscope (Leica Microsystems) and analyzed with QuPath (v0.5.0).

Compound	Butyrate Release by LCMS-MS (free butyrate) ([1]; freshly dissolved)	ORO Quantification ORO+ Heart (ApoE^–/– mice on an HFD [2])	acaca (ApoE^–/– mice on an HFD [3])	acly (ApoE^–/– mice on an HFD [3])	cpt1a (ApoE^–/– mice on an HFD [3])	fasn (ApoE^–/– mice on an HFD [3])	scd1 (ApoE^–/– mice on an HFD [3])	srebf1 (ApoE^–/– mice on an HFD [3])	srebf2 (ApoE^–/– mice on an HFD [3])	Immunoflourescence Quantification #CD68 (ApoE^–/– mice on an HFD [4])	Immunoflourescence Quantification #Cells (ApoE^–/– mice on an HFD [4])	Immunoflourescence Quantification #Cells/Area (ApoE^–/– mice on an HFD [4])	Immunoflourescence Quantification #iNOS+ (ApoE^–/– mice on an HFD [4])	Immunoflourescence Quantification #iNOS+/Area (ApoE^–/– mice on an HFD [4])	Immunoflourescence Quantification CD68+/Area (ApoE^–/– mice on an HFD [4])	Immunoflourescence Quantification CD68+iNOS+ (ApoE^–/– mice on an HFD [4])	Immunoflourescence Quantification CD68+iNOS+/Area (ApoE^–/– mice on an HFD [4])	further results
CCCC(=O)[O-].[Na+] [NaBut, sodium butyrate, reference compound]	2.185 and 1.975 and 1.35 and 1.426	19.7151 and 33.3577 and 43.2157 and 32.1745 and 46.8072 and 36.2576 and 32.4176 and 40.5144 and 34.2074 and 37.9228	0.754 and 1.434 and 0.565 and 0.348	1.514 and 3.195 and 3.181 and 0.636	0.594 and 0.912 and 0.54 and 0.529	1.21 and 3.882 and 0.92 and 0.454	1.215 and 2.79 and 1.889 and 0.696	0.816 and 1.204 and 0.406 and 0.79	0.731 and 1.208 and 0.837 and 0.717	1074 and 944 and 743 and 1249 and 728 and 1069 and 1053 and 1330 and 954 and 511	1302 and 1139 and 1013 and 1531 and 949 and 1262 and 1685 and 1684 and 1364 and 682	0.004391 and 0.005279 and 0.00411 and 0.005114 and 0.004088 and 0.003979 and 0.00428 and 0.00408 and 0.005037 and 0.004831	500 and 473 and 401 and 466 and 354 and 445 and 695 and 625 and 264	0.001686 and 0.002192 and 0.001627 and 0.001557 and 0.001525 and 0.001403 and 0.001765 and 0.001514 and 0.00187	0.003622 and 0.004376 and 0.003015 and 0.004172 and 0.003136 and 0.00337 and 0.002675 and 0.003222 and 0.003523 and 0.003619	445 and 379 and 322 and 434 and 281 and 393 and 535 and 517 and 202	0.001501 and 0.001757 and 0.001307 and 0.00145 and 0.001211 and 0.001239 and 0.001359 and 0.001252 and 0.001431	CD68^+ cells and iNOS^+ cells per unit area atherosclerotic lesion (ApoE^–/– mice on an HFD [4]; 6 weeks, compared with water- and SerBut-treated groups): increased
CCCC(=O)OC[C@H](N)C(=O)O [SerBut, O-butyryl-L-serine]	0.483 and 0.4832 and 0.4596	21.0027 and 29.8005 and 22.5256 and 19.8678 and 31.4493 and 14.4105 and 13.3736 and 26.8175 and 18.8593 and 30.307 and 36.2089 and 15.3228 and 16.4207 and 38.8939 and 24.9469 and 30.9724 and 19.1725	0.188 and 0.284 and 0.192 and 0.406 and 0.341	0.526 and 0.622 and 0.832 and 0.324 and 0.471	0.348 and 0.381 and 0.409 and 0.745 and 0.465	0.409 and 0.404 and 0.103 and 0.193 and 0.312	1.631 and 1.826 and 1.024 and 0.978 and 0.7	0.853 and 0.562 and 0.47 and 0.606 and 0.321	0.511 and 0.812 and 0.428 and 0.961 and 0.372	253 and 777 and 160 and 609 and 328 and 484 and 543 and 320 and 469 and 759 and 789 and 546 and 570 and 595 and 155 and 500	361 and 838 and 219 and 933 and 390 and 980 and 918 and 425 and 532 and 1028 and 894 and 662 and 629 and 763 and 225 and 709	0.003013 and 0.004253 and 0.004189 and 0.003573 and 0.00395 and 0.004233 and 0.003714 and 0.004358 and 0.004407 and 0.003725 and 0.004412 and 0.003975 and 0.003527 and 0.00449 and 0.003521 and 0.004264	313 and 90 and 377 and 151 and 158 and 199 and 404 and 180 and 226 and 262 and 184 and 96 and 292	0.001588 and 0.001722 and 0.001444 and 0.001529 and 0.00162 and 0.001649 and 0.001464 and 0.0008883 and 0.001357 and 0.001469 and 0.001083 and 0.001502 and 0.001756	0.002112 and 0.003943 and 0.003061 and 0.002332 and 0.003322 and 0.00209 and 0.002197 and 0.003281 and 0.003885 and 0.00275 and 0.003894 and 0.003278 and 0.003196 and 0.003502 and 0.002425 and 0.003007	308 and 87 and 302 and 146 and 132 and 181 and 347 and 153 and 200 and 252 and 157 and 71 and 253	0.001563 and 0.001664 and 0.001157 and 0.001479 and 0.001354 and 0.001499 and 0.001257 and 0.0007551 and 0.001201 and 0.001413 and 0.000924 and 0.001111 and 0.001521	relative concentration of free butyrate on storage ([1]; FBS-supplemented complete media, 1 month at 37°C): did not change; Butyrate Release by LCMS-MS (free butyrate) ([1]; aged: 37°C in FBS-supplemented media for 1 month, listed as Aged SerBut): 0.457 and 0.4771 and 0.4543 and 0.3155 and 0.3079; share of sample that was free butyrate ([1]; at the time of measurement): approximately 10%; Oil Red O–stained plaque area in the aortic root (ApoE^–/– mice on an HFD [2]; 6 weeks, 150 mM in drinking water, HFD, compared with both control and NaBut-treated groups): significantly less; liver expression of Acly (ApoE^–/– mice on an HFD [3]; 6 weeks, compared with NaBut-treated mice but not water-treated groups): significantly reduced expression; liver expression of Cpt1a (ApoE^–/– mice on an HFD [3]; 6 weeks, compared with water-treated groups, P = 0.06): strong trend toward reduction; total numbers of CD68^+ macrophages in plaque (ApoE^–/– mice on an HFD [4]; 6 weeks, compared to NaBut-treated groups): reduced
